The results in this text go back to US7056679B2, “Target specific screening and its use for identifying target binders” (Antyra, Inc., priority 2001, dated 2006).

In assay [1] the target is T1, DGI-2 (Homo sapiens, UniProt Q15004).
T1 construct: encompassed the entire DGI-2 open reading frame (ORF); His-tag of vector pIVEX2.3-MCS (inferred from the vector and from the reverse primer lacking a stop codon); made in house; host or cells: cell-free in vitro translation (Rapid Translation System RTS, Roche; E. coli lysate)
T1 sequence (Q15004 1-111): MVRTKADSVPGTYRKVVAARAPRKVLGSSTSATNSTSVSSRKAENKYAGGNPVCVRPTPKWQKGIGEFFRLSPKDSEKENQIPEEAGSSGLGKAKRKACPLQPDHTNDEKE
As to the kind of experiment: ELISA analysis of phage on DGI-2 polypeptide (specific binding). As to conditions: for DGI-2 (OD): binding to DGI-2 polypeptide (specific binding), phage ELISA units read at 405 nm; for DGI-2/LDH (OD): ratio of specific binding to non-specific binding. How it is done: To verify that the selected target binders bound to DGI-2, Elisa assays were performed with recombinant DGI-2. DGI-2 was subcloned and expressed using conventional methods as described below.
Protein yields were satisfactory, but most of protein was found in inclusion bodies. Next, DGI-2 was expressed using an in vitro translation system (Rapid Translation System RTS 5000, Roche Diagnostics GmbH, Mannheim Germany). For this system, the DGI-2 ORF was cloned into the pIVEX2.3-MCS vector (Roche Diagnostics) using restriction sites Nde I and Hind III, which were added to DGI-2 by PCR. […] The primers used for the PCR amplification were as follows: […]
(§1) For analysis of individual target binders, colonies were picked and phage prepared as described above using helper phage, M13KO7. Ninety-six-well microtiter plates were coated with 500 ng/well of specific target protein, 500 ng/well lactate dehydrogenase (LDH) irrelevant or non-specific target, 500 ng/well of positive control antibody raised against ETAG, and negative control of non-fat milk powder-PBS 2% at 4° C. overnight. Plates were then blocked with 350 microliters/well PBS containing 2% non-fat milk for 1 hr at room temperature. One hundred microliters per well of phage from isolated clones were added and plates were incubated at room temperature for 2 hr after centrifuging samples for 20 minutes at 3500 rpm at 4° C. The phage solution was then removed, and the wells were washed three times with PBS at room temperature. Antibody raised against M13 conjugated to horseradish peroxidase (Pharmacia) was diluted 1:3000 in PBS-Tween and added to each well (100 μl/well). Incubation was for 1 hr at room temperature, followed by washing with PBS-(0.5%) Tween 3 times as described. Color was developed by addition of ABTS solution (100 μl/well; Boehringer, Indianapolis, Ind.). Plates were analyzed at 405 nm. A clone was considered “positive” if the A405 of the well was ≧2-fold over background.

Assay [2] relates to lactate dehydrogenase (LDH). Briefly: ELISA analysis of phage on LDH (irrelevant, non-specific target). The note with it: for LDH (OD): peptide binding to LDH polypeptide (non-specific binding), phage ELISA units read at 405 nm; for LDH: DGI-9 binders, LDH control irrelevant protein, ratio over background. The assay is classed as binding. How it is done:
as §1

Assay [3] has as its system E-tag antibody. Briefly: ELISA analysis of phage on antibody raised against ETAG (positive control). The note with it: peptide binding to E-tag antibody; phage ELISA units read at 405 nm. How it is done: as §1
(In general: An ELISA detects its analyte on a solid surface through an enzyme-linked reagent.)

Regarding “ACSVGTALVFPQRWWYLGRS (DGI-2-20R-3-D6; listed as Escherichia coli) [DGL-2-20R-3-D6]”, in assay [1], the “DGI-2 (OD)” value is reported as 2.2 OD and the “DGI-2/LDH (OD)” value turned out to be 2.1. Also, the “LDH (OD)” value in assay [2] was 1.1 OD. Also, the “ETAG (OD)” value in assay [3] stood at 12.9 OD.
In the same order, the values of “ALRSLGSGGFGWQAGRASPQGMTHFPYFGWSGMPTARVRP (DGI-2-40F-3-D7; listed as Escherichia coli)” are 2.6 OD, 2.6, 1.0 OD and 10.3 OD.
In the case of “CAYRWGLFRGPGRVDYDLQVVGIMMWPGPIPDRSSRGSVA (DGI-2-40F-3-A7; listed as Escherichia coli)”, in assay [1], the “DGI-2 (OD)” value worked out at 0.9 OD and the “DGI-2/LDH (OD)” value worked out at 1.1. Further, in assay [2], the “LDH (OD)” value was found to be 0.8 OD. The “ETAG (OD)” value in assay [3] turned out to be 8.7 OD.
For the substance “CCAWNGVGVGGLGWRVVVGP (DGI-2-20F-PP-H4; listed as Escherichia coli)”, in assay [1], the “DGI-2 (OD)” value turned out to be 2.1 OD and the “DGI-2/LDH (OD)” value was determined as 2.2. Besides, the “LDH (OD)” value in assay [2] was 1.0 OD. The “ETAG (OD)” value in assay [3] turned out to be 32.9 OD.
Take “CGGWGAMWEAWVQGLNGAGC (DGI-2-20R-3-D4; listed as Escherichia coli)”: in assay [1], the “DGI-2 (OD)” value was determined as 8.7 OD and the “DGI-2/LDH (OD)” value was found to be 8.1. For the same substance, in assay [2], the “LDH (OD)” value came out at 1.1 OD. Also, the “ETAG (OD)” value in assay [3] was determined as 18.9 OD.
In the case of “CRNFGVIWGAGWVSPGCEDJ (CRNFGVIWGAGWVSPGCEDI; not fully specified; non-natural residue J; DGI-2-20F-3-A1; listed as Escherichia coli) [DGI-2-20E-3-A1]”, in assay [1], the “DGI-2 (OD)” value came to 2.8 OD and the “DGI-2/LDH (OD)” value is listed as 3.0. Further, the “LDH (OD)” value in assay [2] is on record as 1.0 OD. In addition, the “ETAG (OD)” value in assay [3] was determined as 14.3 OD.
In the case of “CYLSRLFRSGQGIGQFGHVE (DGI-2-20F-PP-A82; listed as Escherichia coli)”, in assay [1], the “DGI-2 (OD)” value worked out at 2.5 OD and the “DGI-2/LDH (OD)” value is given as 2.3. Besides, in assay [2], the “LDH (OD)” value was determined as 1.1 OD. For the same substance, the “ETAG (OD)” value in assay [3] is on record as 16.5 OD.
Regarding “DAGIGWVGSMWFPPGCIGAC (DGI-2-20R-4-E82; listed as Escherichia coli)”, in assay [1], the “DGI-2 (OD)” value is recorded as 3.9 OD and the “DGI-2/LDH (OD)” value came out at 3.7. Besides, in assay [2], the “LDH (OD)” value amounted to 1.1 OD. Moreover, the “ETAG (OD)” value in assay [3] is listed as 19.6 OD.
The corresponding values for “DDIVCLFQFCTMFCWLDMGW (DDIVCLFQFCIMFCWLDMGW; DGI-2-20F-PP-H3; listed as Escherichia coli)” are 2.3 OD, 1.3, 1.8 OD and 3.7 OD.
“DGKHLTKWSGRGWWSAWVGG (DGI-2-20R-3-B12; listed as Escherichia coli)”: in assay [1], the “DGI-2 (OD)” value came out at 5.7 OD and the “DGI-2/LDH (OD)” value is recorded as 5.5. The “LDH (OD)” value in assay [2] amounted to 1.0 OD. Moreover, the “ETAG (OD)” value in assay [3] is recorded as 15.5 OD.
Regarding “DGRGWGAMWMRWAEGLGADI (DGI-2-20R-4-G114; listed as Escherichia coli)”, in assay [1], the “DGI-2 (OD)” value is 12.9 OD and the “DGI-2/LDH (OD)” value is reported as 11.0. In assay [2], the “LDH (OD)” value came out at 1.2 OD. For the same substance, the “ETAG (OD)” value in assay [3] was 16.5 OD.
Turning to “DQRVVGSGWFERLRNWYDRA (DGI-2-20R-4-G99; listed as Escherichia coli)”, in assay [1], the “DGI-2 (OD)” value is 7.5 OD and the “DGI-2/LDH (OD)” value is on record as 7.2. Moreover, the “LDH (OD)” value in assay [2] stood at 1.0 OD. Moreover, the “ETAG (OD)” value in assay [3] is 14.1 OD.
In the same order, the values of “DRHRAFVAEGLDGFRHSTGV (DGI-2-20F-PP-D4; listed as Escherichia coli)” are 2.6 OD, 2.3, 1.1 OD and 44.0 OD.
For “DRSRAPLCADKSGRWQRYRR (DGI-2-20F-PP-C10; listed as Escherichia coli)”, in assay [1], the “DGI-2 (OD)” value was 2.7 OD and the “DGI-2/LDH (OD)” value is 3.1. The “LDH (OD)” value in assay [2] is 0.9 OD. The “ETAG (OD)” value in assay [3] was determined as 8.6 OD.
Turning to “DRVARLATPTAGTMAAGSLGYERTVGCDSQDWFRCVVEGL (DGI-2-40F-3-D1044; listed as Escherichia coli)”, in assay [1], the “DGI-2 (OD)” value worked out at 7.9 OD and the “DGI-2/LDH (OD)” value amounted to 6.2. The “LDH (OD)” value in assay [2] was found to be 1.3 OD. Moreover, the “ETAG (OD)” value in assay [3] came out at 17.7 OD.
For “DSEA*RVWYSGFLRRLGHMC (DSEARVWYSGFLRRLGHMC; DGI-2-20F-PP-F7; listed as Escherichia coli)”, in assay [1], the “DGI-2 (OD)” value was 2.1 OD and the “DGI-2/LDH (OD)” value is 2.1. The “LDH (OD)” value in assay [2] was 1.0 OD. Further, the “ETAG (OD)” value in assay [3] is recorded as 3.3 OD.
The corresponding values for “DVGAVVRSGHCASRPGE*QVR (DVGAVVRSGHCASRPGEQVR; DGI-2-20F-PP-H9; listed as Escherichia coli)” are 1.6 OD, 1.5, 1.1 OD and 13.6 OD.
In the case of “DYKGRTMTSPIMSALPVYDRLHGIGSRGQNMD (DYKGRTMTSPIMSALPVYDRLHGAIGSRGQNMD; DGI-2-20C-3-B3; listed as Escherichia coli)”, in assay [1], the “DGI-2 (OD)” value stood at 0.8 OD and the “DGI-2/LDH (OD)” value is 0.9. In addition, the “LDH (OD)” value in assay [2] was found to be 0.9 OD. Moreover, the “ETAG (OD)” value in assay [3] worked out at 7.7 OD.
“DYKTCVSQHVHPLFGEYFYHKVTHMSILSPTFRVTSLYG.K (DYKTCVSQHVHPLFGEYFYHKVTHMSILSPTFRVTSLYGK; DGI-2-40F-3-B95; listed as Escherichia coli)”: in assay [1], the “DGI-2 (OD)” value was 1.0 OD and the “DGI-2/LDH (OD)” value is listed as 1.2. The “LDH (OD)” value in assay [2] is reported as 0.8 OD. Further, the “ETAG (OD)” value in assay [3] came out at 5.4 OD.
In the case of “EGNWFCAVFRGFCVGDRGPE (DGI-2-20R-3-A1; listed as Escherichia coli)”, in assay [1], the “DGI-2 (OD)” value was determined as 7.1 OD and the “DGI-2/LDH (OD)” value was 6.3. Besides, the “LDH (OD)” value in assay [2] came out at 1.1 OD. Also, in assay [3], the “ETAG (OD)” value was determined as 11.1 OD.
Regarding “EGQRVVFLFGALVAGLCWRDR (DGI-2-20F-PP-F3; listed as Escherichia coli)”, in assay [1], the “DGI-2 (OD)” value turned out to be 2.6 OD and the “DGI-2/LDH (OD)” value was 2.2. Also, in assay [2], the “LDH (OD)” value is 1.1 OD. Further, in assay [3], the “ETAG (OD)” value is 18.7 OD.
The corresponding values for “ERVSKCVGRGSGRSVGQFGG (DGI-2-20F-PP-F1; listed as Escherichia coli)” are 3.0 OD, 3.4, 0.9 OD and 11.1 OD.
Consider “EVFVSVWVFRFRVMPVTPGGT (DGI-2-20F-PP-E6; listed as Escherichia coli)”, for which, in assay [1], the “DGI-2 (OD)” value was 3.0 OD and the “DGI-2/LDH (OD)” value is listed as 2.6. The “LDH (OD)” value in assay [2] was 1.2 OD. Besides, the “ETAG (OD)” value in assay [3] is listed as 4.1 OD.
For FLLQDFIMDAGSFVKPIGVG [DGI9-20M-4-A414], the LDH in assay [2] is 1.1.
Consider MAGFRGSGLSGYSEARLPRV [DGI9-20M-4-E3], for which the LDH in assay [2] was 1.0.
For SRLALSSQHGLSLVAGRRRG [DGI9-20M-4-A12], the LDH in assay [2] is on record as 0.9.
As to WDWSRFGAQLRGAILGRATG [DGI9-20M-4-A627], the LDH in assay [2] was found to be 0.9.
